Test results taken from patent publication US20250032487A1, “DISSOLUTION TEST” (JANSSEN SCIENCES IRELAND UNLIMITED COMPANY, priority 2021, published 2025).

Assay: In vitro dissolution test, paddle apparatus (USP type 2), polysorbate 20 in 0.05 M sodium phosphate buffer pH 7.4
Format: physicochemical
Method: The dissolution of the suspensions was tested using a paddle apparatus (USP type 2, Ph. Eur, JP) with a rotation speed of 50 rpm in 900 mL 6.0% w/v polysorbate 20 in 0.05 M sodium phosphate buffer pH 7.4 at 5° C. The sample amount corresponds to 18 mg rilpivirine.
After 360 minutes the temperature was increased to 37° C. and maintained for 60 minutes to simulate an infinity time point. The samples taken after the temperature infinity time points are labelled as 420 minutes.
The quantity of dissolved drug substance was determined by a gradient ultra-high performance liquid chromatographic (UHPLC) method with UV detection at 280 nm.
The dissolution of the three rilpivirine suspensions in water was performed using Paddle Apparatus (USP type 2, Ph.Eur., JP.) at 50 rpm in 900 mL of 6.0% w/v Polysorbate 20 in 0.05 M Sodium Phosphate buffer pH 7.4, at 5.0±0.5° C. An amount of 64.98 mg (=0.06 mL×1.083 g/mL (the theoretical density of the suspension))±5% of homogeneous suspension of rilpivirine (corresponding to 18±0.9 mg of rilpivirine) was added.
The determination of the quantity of rilpivirine present in the dissolution samples is based upon a gradient ultra-high performance liquid chromatographic (UHPLC) method with UV detection at 280 nm.
The dissolution of a suspension of nanoparticulate rilpivirine having a Dv50 of ˜200 nm was tested using the method of Example 1 but with different temperatures of the dissolution medium (37° C., 25° C., 15° C., and 5° C.).
The dissolution of a suspension of nanoparticulate rilpivirine having a Dv50 of 218 nm was tested using the method of Example 1 but with different concentrations of the surfactant (1-6% w/v polysorbate 20).

[1] = Example 4, nanoparticulate suspension Dv50 ~200 nm, 5° C., 6.0% w/v polysorbate 20, pH 7.4
[2] = Example 5, nanoparticulate suspension Dv50 218 nm, 6% polysorbate 20, 5° C., pH 7.4

Cc1cc(/C=C/C#N)cc(C)c1Nc1ccnc(Nc2ccc(C#N)cc2)n1 [rilpivirine, 4-[[4-[[4-[(1E)-2-cyanoethenyl]-2,6-dimethylphenyl]amino]-2-pyrimidinyl]amino]benzonitrile]
% dissolved after 6 hours [1]: Over 85%
% dissolved at 5 minutes [1]: less than 30%
time until fully dissolved (Example 4, nanoparticulate suspension Dv50 ~200 nm, 37° C., 6.0% w/v polysorbate 20, pH 7.4, 50 rpm, 900 mL): around 10 minutes
delta % dissolved (difference between lowest and highest % dissolved in the dissolution profile) (Example 5, 6% polysorbate 20 method, suspension Dv50 218 nm, 5° C.): approximately 80%
% dissolved after 360 minutes [2]: more than 85%
initial release, % dissolved [2]: below 20%
